This passage reports MIC results from DBAASP.

Each structure is given as a SMILES string. Converted amounts (≈) assume the structure as drawn. “And” between values parts separate entries of the source, which are not always exact repeats. Equal values may be shown once.

What all share (assay): ≥ marks a high value that may be exact or a test limit, other limits are often not marked, values filed in µg/mL are converted to µM
For experiment [1], the system named is Escherichia coli ATCC 25922.
In experiment [2] the test system is Pseudomonas aeruginosa ATCC 27853.
Experiment [3] deals with Staphylococcus aureus ATCC 25923.
The subject of another experiment is Escherichia coli.
The next experiment relates to Staphylococcus aureus.

In the case of `CC(C)[C@H](NC(=O)[C@H](CC(=O)O)NC(=O)[C@H](CO)NC(=O)[C@H](CCCCN)NC(=O)CNC(=O)[C@H](CO)NC(=O)[C@H](CO)NC(=O)[C@H](Cc1cnc[nH]1)NC(=O)[C@H](CCC(N)=O)NC(=O)[C@@H](N)CCC(=O)O)C(N)=O` [EQHSSGKSDV], the MIC in experiment [1], in experiment [2] and in experiment [3] was above 100 µM each time.
In experiment [2], `CC[C@H](C)[C@H](NC(=O)[C@H](CCSC)NC(=O)[C@H](CCCN=C(N)N)NC(=O)CNC(=O)[C@H](C)NC(=O)[C@H](Cc1cnc[nH]1)NC(=O)[C@H](Cc1ccccc1)NC(=O)[C@H](CC(C)C)NC(=O)CNC(=O)[C@H](CCCCN)NC(=O)[C@@H](NC(=O)[C@@H](NC(=O)[C@H](Cc1cnc[nH]1)NC(=O)[C@H](Cc1ccccc1)NC(=O)[C@H](Cc1ccccc1)NC(=O)[C@@H](N)Cc1ccccc1)[C@@H](C)CC)[C@@H](C)CC)C(=O)N[C@@H](Cc1cnc[nH]1)C(=O)NCC(=O)N[C@@H](CC(C)C)C(=O)N[C@H](C(=O)O)C(C)C` [FFFHIIKGLFHAGRMIHGLV] registered an MIC of 32 µM (≈ 74.9 µg/mL).
On to `CC[C@H](C)[C@H](NC(=O)[C@H](CCCCN)NC(=O)[C@@H]1CCCN1C(=O)[C@H](CC(C)C)NC(=O)[C@H](Cc1ccccc1)NC(=O)[C@H](CC(N)=O)NC(=O)[C@H](C)NC(=O)[C@H](C)NC(=O)[C@@H]1CSSC[C@H](NC(=O)[C@H](CC(C)C)NC(=O)CNC(=O)[C@H](C)NC(=O)[C@H](CC(C)C)NC(=O)[C@H](CC(C)C)NC(=O)[C@@H]2CCCN2C(=O)[C@H](CC(C)C)NC(=O)[C@@H](N)Cc2ccccc2)C(=O)N[C@@H](CCCCN)C(=O)N[C@@H]([C@@H](C)CC)C(=O)N[C@@H]([C@@H](C)O)C(=O)N[C@@H](CCCN=C(N)N)C(=O)N[C@@H](CCCCN)C(=O)N1)C(=O)N[C@@H](Cc1ccccc1)C(=O)O` [FLPLLAGLCKITRKCAANFLPKIF], for which the MIC amounted to 7 µM (≈ 18.7 µg/mL) in the experiment with Escherichia coli and 1.5 µM (≈ 4.01 µg/mL) with Staphylococcus aureus.
In the experiment with Escherichia coli, `CC[C@H](C)[C@H](NC(=O)[C@H](CC(C)C)NC(=O)[C@H](C)NC(=O)[C@H](Cc1ccccc1)NC(=O)[C@H](Cc1ccccc1)NC(=O)CN)C(=O)N[C@@H](C)C(=O)N[C@@H](CCCCN)C(=O)N[C@H](C(=O)N[C@H](C(=O)N[C@@H](CO)C(=O)N[C@@H](CO)C(=O)N1CCC[C@H]1C(=O)N[C@@H](CC(C)C)C(=O)N[C@@H](Cc1ccccc1)C(=O)N[C@@H](CCCCN)C(=O)N[C@H](C(=O)N[C@@H](CC(C)C)C(N)=O)[C@@H](C)O)[C@@H](C)CC)[C@@H](C)CC` [GFFALIAKIISSPLFKTL] had an MIC of 20.3 µM (≈ 40 µg/mL). That is a double-digit micromolar value.
For `CC[C@H](C)[C@H](NC(=O)[C@H](CO)NC(=O)[C@H](C)NC(=O)[C@H](CC(C)C)NC(=O)CNC(=O)[C@H](C)NC(=O)[C@H](CCCCN)NC(=O)[C@H](C)NC(=O)[C@H](Cc1ccccc1)NC(=O)[C@H](CCCCN)NC(=O)[C@H](CCCCN)NC(=O)[C@H](CC(C)C)NC(=O)CNC(=O)[C@H](CCC(=O)O)NC(=O)[C@H](C)NC(=O)[C@H](C)NC(=O)[C@@H](NC(=O)[C@@H](NC(=O)[C@H](Cc1c[nH]c2ccccc12)NC(=O)[C@H](Cc1ccccc1)NC(=O)CN)[C@@H](C)O)[C@@H](C)O)C(=O)N[C@@H](CC(C)C)C(=O)N[C@@H](CC(N)=O)C(=O)N1CCC[C@H]1C(=O)N[C@@H](CCCCN)C(=O)O` [GFWTTAAEGLKKFAKAGLASILNPK], the minimal inhibitory concentration (MIC) with Escherichia coli was 80 µM (≈ 210 µg/mL); in the experiment on Staphylococcus aureus, above 80 µM.
For `CC[C@H](C)[C@H](NC(=O)CN)C(=O)N[C@@H](CCCN=C(N)N)C(=O)N[C@@H](CC(=O)O)C(=O)N[C@H](C(=O)N[C@@H](CC(C)C)C(=O)N[C@@H](CCCCN)C(=O)NCC(=O)N[C@@H](C)C(=O)N[C@@H](C)C(=O)N[C@@H](CCCCN)C(=O)N[C@@H](C)C(=O)N[C@@H](Cc1ccccc1)C(=O)N[C@H](C(=O)N[C@@H](CCCCN)C(=O)N[C@H](C(=O)N[C@H](C(=O)N[C@@H](C)C(=O)NCC(=O)N[C@@H](Cc1cnc[nH]1)C(=O)N[C@H](C(=O)N[C@@H](C)C(=O)N[C@@H](CC(N)=O)C(N)=O)[C@@H](C)CC)C(C)C)[C@@H](C)O)C(C)C)C(C)C` [GIRDVLKGAAKAFVKTVAGHIAN], the MIC in experiment [1] turned out to be 4 µM (≈ 9.34 µg/mL). In other words, the single-digit micromolar range.
As for `CC[C@H](C)[C@H](NC(=O)[C@H](CCCCN)NC(=O)[C@H](CCCCN)NC(=O)[C@@H](NC(=O)[C@@H](NC(=O)[C@H](CC(=O)O)NC(=O)[C@H](Cc1ccccc1)NC(=O)[C@H](CC(C)C)NC(=O)CN)[C@@H](C)CC)[C@@H](C)CC)C(=O)N[C@@H](Cc1c[nH]c2ccccc12)C(=O)N[C@@H](CCC(=O)O)C(=O)N[C@@H](CO)C(=O)N[C@@H](Cc1ccccc1)C(N)=O` [GLFDIIKKIWESF], the MIC in experiment [1] and in experiment [2] was above 125 µM each time.
In the case of `CC(C)C[C@H](NC(=O)[C@H](CC(C)C)NC(=O)[C@@H](NC(=O)[C@H](CCCCN)NC(=O)[C@H](C)NC(=O)[C@H](CCCN=C(N)N)NC(=O)[C@H](CCCCN)NC(=O)[C@H](CC(C)C)NC(=O)[C@H](CC(C)C)NC(=O)CN)[C@@H](C)O)C(N)=O` [GLLKRAKTLL], the MIC in experiment [1] and in experiment [3] was above 36.9 µM throughout.
In experiment [1], `CC[C@H](C)[C@H](NC(=O)[C@H](CCCN=C(N)N)NC(=O)[C@H](CO)NC(=O)[C@H](CC(C)C)NC(=O)[C@H](CC(C)C)NC(=O)CN)C(=O)N[C@@H](CCCCN)C(=O)N[C@H](C(=O)N[C@@H](CC(C)C)C(=O)N[C@@H](CC(C)C)C(N)=O)[C@@H](C)O` [GLLSRIKTLL] displayed an MIC of 100 µM (≈ 111 µg/mL).
The same measure, in the same setting: with `CC[C@H](C)[C@H](NC(=O)[C@H](C)NC(=O)CNC(=O)[C@H](C)NC(=O)[C@H](CCCCN)NC(=O)[C@H](CO)NC(=O)[C@H](C)NC(=O)[C@H](CCSC)NC(=O)CN)C(=O)N[C@@H](C)C(=O)NCC(=O)N[C@@H](CCCCN)C(=O)N[C@H](C(=O)N[C@@H](C)C(=O)N[C@@H](CCCCN)C(=O)N[C@H](C(=O)N[C@@H](C)C(=O)N[C@@H](Cc1c[nH]c2ccccc12)C(=O)N[C@@H](CCCCN)C(=O)N[C@@H](C)C(=O)N[C@@H](CC(C)C)C(N)=O)C(C)C)[C@@H](C)CC` [GMASKAGAIAGKIAKVAWKAL] the figure was 8.87 µM (≈ 18.1 µg/mL); with `CC[C@H](C)[C@H](N)C(=O)N[C@H](C(=O)N[C@@H](CCCCN)C(=O)N[C@@H](CCCCN)C(=O)N[C@@H](Cc1ccccc1)C(=O)N[C@@H](CC(C)C)C(=O)N[C@@H](Cc1cnc[nH]1)C(=O)N[C@@H](CO)C(=O)N[C@H](C(=O)N[C@@H](Cc1c[nH]c2ccccc12)C(=O)N[C@@H](CCCCN)C(=O)N[C@@H](Cc1ccccc1)C(=O)NCC(=O)N[C@@H](CCCCN)C(=O)N[C@@H](C)C(=O)N[C@@H](Cc1ccccc1)C(=O)N[C@H](C(=O)NCC(=O)N[C@@H](CCC(=O)O)C(=O)N[C@H](C(=O)N[C@@H](CCSC)C(=O)N[C@@H](CC(N)=O)C(=O)N[C@H](C(=O)O)[C@@H](C)CC)[C@@H](C)CC)C(C)C)[C@@H](C)CC)[C@@H](C)CC` [IIKKFLHSIWKFGKAFVGEIMNI], 2 µM (≈ 5.44 µg/mL).
For the molecule `CC[C@H](C)[C@H](NC(=O)[C@H](Cc1ccccc1)NC(=O)[C@H](CCCCN)NC(=O)[C@H](CC(C)C)NC(=O)[C@H](CC(C)C)NC(=O)[C@@H](N)CCCCN)C(=O)N[C@@H](CCCCN)C(=O)N[C@H](C(=O)N[C@@H](CC(C)C)C(=O)N[C@@H](CC(C)C)C(N)=O)[C@@H](C)O` [KLLKFIKTLL], the MIC in experiment [1] was 2.47 µM (≈ 3 µg/mL); in experiment [3], 5.75 µM (≈ 6.99 µg/mL).
Take `CC[C@H](C)[C@H](NC(=O)CNC(=O)[C@H](CO)NC(=O)[C@H](CCCN=C(N)N)NC(=O)[C@@H](NC(=O)CNC(=O)[C@H](Cc1c[nH]c2ccccc12)NC(=O)[C@@H](N)CC(C)C)[C@@H](C)O)C(=O)N[C@@H](CCC(N)=O)C(=O)N1CCC[C@H]1C(N)=O` [LWGTRSGIQP]: the MIC in experiment [1], in experiment [2] and in experiment [3] was above 100 µM throughout.
Regarding `CC[C@H](C)[C@H](NC(=O)[C@H](Cc1cnc[nH]1)NC(=O)[C@H](CCCN=C(N)N)NC(=O)[C@H](Cc1c[nH]c2ccccc12)NC(=O)[C@@H](NC(=O)[C@H](CCCN=C(N)N)NC(=O)[C@H](CCCCN)NC(=O)[C@H](C)NC(=O)CNC(=O)[C@H](CCCN=C(N)N)NC(=O)[C@H](CCSC)NC(=O)[C@H](C)NC(=O)[C@@H](N)CC(N)=O)C(C)C)C(N)=O` [NAMRGAKRVWRHI], the MIC in experiment [1] is 44.3 µM and 62.7 µM.
For `CC(C)[C@H](NC(=O)[C@H](C)NC(=O)[C@@H](N)CCC(N)=O)C(=O)N[C@@H](CCC(=O)O)C(=O)N[C@@H](C)C(=O)N[C@@H](CCC(N)=O)C(=O)N[C@@H](CCCCN)C(=O)O` [QAVEAQK], the MIC in experiment [1] was found to be 1620 µM (≈ 1250 µg/mL); in experiment [3], 809 µM (≈ 625 µg/mL).
`CC(C)[C@H](N)C(=O)N[C@H]1CSSC[C@@H](C(=O)N[C@H](C(=O)NCC(=O)N[C@@H](CCCN=C(N)N)C(=O)O)C(C)C)NC(=O)[C@H](C(C)C)NC(=O)[C@@H]2CSSC[C@H](NC(=O)[C@H](Cc3ccc(O)cc3)NC1=O)C(=O)N[C@@H](CCCN=C(N)N)C(=O)N[C@@H](CCCN=C(N)N)C(=O)N[C@@H](CCCN=C(N)N)C(=O)N[C@@H](Cc1ccccc1)C(=O)N2` [VCYCRRRFCVCVGR]: the MIC in the experiment on Escherichia coli came out at 0.349 µM (≈ 0.599 µg/mL).
Turning to `CC(C)C[C@H](NC(=O)[C@H](Cc1ccccc1)NC(=O)[C@@H]1CCCN1C(=O)[C@H](Cc1c[nH]c2ccccc12)NC(=O)[C@H](Cc1ccc(O)cc1)NC(=O)[C@H](Cc1ccc(O)cc1)NC(=O)[C@@H]1CCCN1C(=O)[C@H](Cc1ccccc1)NC(=O)[C@H](CCCN=C(N)N)NC(=O)[C@H](CCCN=C(N)N)NC(=O)[C@@H](N)C(C)C)C(=O)N[C@@H](CCCN=C(N)N)C(=O)N[C@@H](CCCN=C(N)N)C(N)=O` [VRRFPYYWPFLRR], the MIC in experiment [1] was determined as 32 µM (≈ 59.4 µg/mL).
Consider `NC(=O)[C@H](Cc1c[nH]c2ccccc12)NC(=O)[C@H](CCCN=C(N)N)NC(=O)[C@H](CCCN=C(N)N)NC(=O)[C@@H](N)Cc1c[nH]c2ccccc12` [WRRW], for which the results for the MIC in experiment [1] and in experiment [3] were above 285 µM and 285 µM (≈ 200 µg/mL), respectively.
With `NC(=O)[C@H](Cc1ccc(O)cc1)NC(=O)[C@H](CCCN=C(N)N)NC(=O)[C@H](Cc1c[nH]c2ccccc12)NC(=O)[C@H](CCCN=C(N)N)NC(=O)[C@@H](N)Cc1c[nH]c2ccccc12` [WRWRY], the MIC in experiment [1] is 115 µM (≈ 99.9 µg/mL); in experiment [3], 57.7 µM (≈ 49.9 µg/mL).

Usually MIC stands for the smallest concentration in the dilution series that meets the test's criterion for growth inhibition. Low values mean a more susceptible organism, high ones a less susceptible organism.
